Measurements taken from patent publication US20240010640A1, “ANTAGONISTS OF THE MUSCARINIC ACETYLCHOLINE RECEPTOR M4” (Vanderbilt University, priority 2020, published 2024).

Target: T1, Human M4 (Homo sapiens, UniProt P08173)
T1 construct: Human or rat M4 cDNA, along with the chimeric G protein Gqi5, were transfected into Chinese hamster ovary (CHO-K1) cells; expressed in transfected cells; host or cells: CHO-K1 (Chinese hamster ovary, ATCC), stably expressing M4 and Gqi5
T1 sequence (P08173 1-479): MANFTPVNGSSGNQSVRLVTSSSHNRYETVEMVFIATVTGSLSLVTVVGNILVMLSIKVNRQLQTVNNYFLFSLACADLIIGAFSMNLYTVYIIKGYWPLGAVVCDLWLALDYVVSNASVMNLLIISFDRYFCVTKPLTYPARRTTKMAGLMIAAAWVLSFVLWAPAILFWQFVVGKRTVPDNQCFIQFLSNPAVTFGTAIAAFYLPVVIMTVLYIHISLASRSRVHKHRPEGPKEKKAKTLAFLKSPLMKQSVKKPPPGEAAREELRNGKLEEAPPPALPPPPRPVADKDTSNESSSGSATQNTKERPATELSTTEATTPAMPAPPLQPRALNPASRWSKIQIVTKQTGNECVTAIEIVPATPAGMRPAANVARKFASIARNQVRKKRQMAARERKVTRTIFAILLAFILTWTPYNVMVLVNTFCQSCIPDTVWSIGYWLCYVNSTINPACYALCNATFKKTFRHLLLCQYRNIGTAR
Assay: mAChR M4 cell-based functional assay (calcium flux, antagonist mode)
Details: for IC50: Human M4/Gqi5 CHO-K1 cells, decrease of acetylcholine response; for Emin (% ACh maximum at 30 μM): Human M4
Method: Human or rat M4 cDNA, along with the chimeric G protein Gqi5, were transfected into Chinese hamster ovary (CHO-K1) cells purchased from the American Type Culture Collection using Lipofectamine2000. M4/Gqi5/CHO cells were grown in Ham's F-12 medium containing 10% heat-inactivated fetal bovine serum (FBS), 20 mM HEPES, 500 μg/mL G418 sulfate, and 200 μg/mL Hygromycin B.
For high throughput measurement of agonist-evoked increases in intracellular calcium, CHO-K1 cells stably expressing muscarinic receptors were plated in growth medium lacking G418 and hygromycin at 15,000 cells/20 μL/well in Greiner 384-well black-walled, tissue culture (TC)-treated, clear-bottom plates (VWR). Cells were incubated overnight at 37° C. and 5% CO2. The next day, cells were washed using an ELX 405 (BioTek) with assay buffer; the final volume was then aspirated to 20 μL. Next, 20 μL of a 2.3 μM stock of Fluo-4/acetoxymethyl ester (Invitrogen, Carlsbad, CA), prepared as a 2.3 mM stock in DMSO and mixed in a 1:1 ratio with 10% (w/v) Pluronic F-127 and diluted in assay buffer, was added to the wells and the cell plates were incubated for 50 min at 37° C. and 5% CO2. Dye was removed by washing with the ELX 405 and the final volume was aspirated to 20 μL. Compound master plates were formatted in a 10 point concentration-response curve (CRC) format (1:3 dilutions) in 100% DMSO with a starting concentration of 10 or 1 mM using a BRAVO liquid handler (Agilent). Test compound CRCs were then transferred to daughter plates (240 nL) using the Echo acoustic plate reformatter (Labcyte, Sunnyvale, CA) and then diluted into assay buffer (40 μL) to a 2× stock using a Thermo Fisher Combi (Thermo Fisher Scientific, Waltham, MA).
Calcium flux was measured using the Functional Drug Screening System (FDSS) 6000 or 7000 (Hamamatsu Corporation, Tokyo, Japan) as an increase in the fluorescent static ratio. Compounds were applied to cells (20 μL, 2×) using the automated system of the FDSS at 2 seconds into the protocol and the data were collected at 1 Hz. At 143 s, 10 μL of an EC20 concentration of the muscarinic receptor agonist acetylcholine was added (5×), followed by the addition of 12 μL of an […] concentration of acetylcholine at the 268 s time point (5×). Agonist activity was analyzed as a concentration-dependent increase in calcium mobilization upon compound addition. Positive allosteric modulator activity was analyzed as a concentration-dependent increase in the EC20 acetylcholine response. Antagonist activity was analyzed as a concentration-dependent decrease in the EC80 acetylcholine response; for the purposes of the tables herein, an IC50 (inhibitory concentration 50) was calculated as a concentration-dependent decrease of the response elicited by an […] concentration of acetylcholine. Concentration-response curves were generated using a four-parameter logistical equation in XLFit curve fitting software (IDBS, Bridgewater, NJ) for Excel (Microsoft, Redmond, WA) or Prism (GraphPad Software, Inc., San Diego, CA) or the Dotmatics software platform (Dotmatics, Bishop's Stortford, UK).
Compounds were synthesized as described above. Activity (IC50 and Emin) was determined in the mAChR M4 cell-based functional assay as described above and the data are shown in Table 1.

IC50	Emin (% ACh maximum at 30 μM)	SMILES
0.081 µM	5%	[2H]C([2H])(C1CCOCC1)N1C[C@H]2C[C@H](Nc3ccc(-c4ccn(C)c(=O)c4)nn3)C[C@H]2C1 [A1, 1-methyl-4-(6-(((3aR,5s,6aS)-2-((tetrahydro-2H-pyran-4-yl)methyl-d2)octahydrocyclopenta[c]pyrrol-5-yl)amino)pyridazin-3-yl)pyridin-2(1H)-one]
0.034 µM	4%	[2H]C([2H])(C1CCOCC1)N1C[C@H]2C[C@H](Nc3ccc(-c4ccc(=O)n(C)c4)nn3)C[C@H]2C1 [A2, 1-methyl-5-(6-(((3aR,5s,6aS)-2-((tetrahydro-2H-pyran-4-yl)methyl-d2)octahydrocyclopenta[c]pyrrol-5-yl)amino)pyridazin-3-yl)pyridin-2(1H)-one]
0.0059 µM	4%	[2H]C([2H])(C1CCOCC1)N1C[C@H]2C[C@H](Nc3ccc(-c4cccn(C)c4=O)nn3)C[C@H]2C1 [A3, 1-methyl-3-(6-(((3aR,5s,6aS)-2-((tetrahydro-2H-pyran-4-yl)methyl-d2)octahydrocyclopenta[c]pyrrol-5-yl)amino)pyridazin-3-yl)pyridin-2(1H)-one]
0.0155 µM	5%	Cn1cccc(-c2ccc(N[C@H]3C[C@@H]4CN(CC5CCOCC5)C[C@@H]4C3)nn2)c1=O [A4, 1-methyl-3-(6-(((3aR,5s,6aS)-2-((tetrahydro-2H-pyran-4-yl)methyl)octahydrocyclopenta[c]pyrrol-5-yl)amino)pyridazin-3-yl)pyridin-2(1H)-one]
0.0038 µM	4%	O=c1ccc(-c2ccc(N[C@H]3C[C@@H]4CN(CC5CCOCC5)C[C@@H]4C3)nn2)cn1C(F)F [A5, 1-(difluoromethyl)-5-(6-(((3aR,5s,6aS)-2-((tetrahydro-2H-pyran-4-yl)methyl)octahydrocyclopenta[c]pyrrol-5-yl)amino)pyridazin-3-yl)pyridin-2(1H)-one]
0.0059 µM	9%	O=c1cc(-c2ccc(N[C@H]3C[C@@H]4CN(CC5CCOCC5)C[C@@H]4C3)nn2)ccn1C(F)F [A6, 1-(difluoromethyl)-4-(6-(((3aR,5s,6aS)-2-((tetrahydro-2H-pyran-4-yl)methyl)octahydrocyclopenta[c]pyrrol-5-yl)amino)pyridazin-3-yl)pyridin-2(1H)-one]
0.514 µM	7%	Cn1cc(-c2ccc(N[C@H]3C[C@@H]4CN(CC5CCOCC5)C[C@@H]4C3)nn2)cnc1=O [A7, 1-methyl-5-(6-(((3aR,5s,6aS)-2-((tetrahydro-2H-pyran-4-yl)methyl)octahydrocyclopenta[c]pyrrol-5-yl)amino)pyridazin-3-yl)pyrimidin-2(1H)-one]
0.136 µM	8%	Cc1cc(-c2ccc(N[C@H]3C[C@@H]4CN(CC5CCOCC5)C[C@@H]4C3)nn2)c(=O)[nH]n1 [A8, 6′-methyl-6-(((3aR,5s,6aS)-2-((tetrahydro-2H-pyran-4-yl)methyl)octahydrocyclopenta[c]pyrrol-5-yl)amino)-[3,4′-bipyridazin]-3′(2′H)-one]
0.0274 µM	4%	Cn1cc(C(F)(F)F)cc(-c2ccc(N[C@H]3C[C@@H]4CN(CC5CCOCC5)C[C@@H]4C3)nn2)c1=O [A9, 1-methyl-3-(6-(((3aR,5s,6aS)-2-((tetrahydro-2H-pyran-4-yl)methyl)octahydrocyclopenta[c]pyrrol-5-yl)amino)pyridazin-3-yl)-5-(trifluoromethyl)pyridin-2(1H)-one]
0.129 µM	4%	Cn1cc(-c2ccc(N[C@H]3C[C@@H]4CN(CC5CCCOC5)C[C@@H]4C3)nn2)ccc1=O (stereo partly drawn) [A10, 1-methyl-5-(6-(((3aR,5s,6aS)-2-((tetrahydro-2H-pyran-3-yl)methyl)octahydrocyclopenta[c]pyrrol-5-yl)amino)pyridazin-3-yl)pyridin-2(1H)-one]
0.0035 µM	3%	Cn1cc(-c2ccc(N[C@H]3C[C@@H]4CN(CC5CCCCC5)C[C@@H]4C3)nn2)ccc1=O [A11, 5-(6-(((3aR,5s,6aS)-2-(cyclohexylmethyl)octahydrocyclopenta[c]pyrrol-5-yl)amino)pyridazin-3-yl)-1-methylpyridin-2(1H)-one]
0.762 µM	9%	Cn1cc(-c2ccc(N[C@H]3C[C@@H]4CN(Cc5ccccn5)C[C@@H]4C3)nn2)ccc1=O [A12, 1-methyl-5-(6-(((3aR,5s,6aS)-2-(pyridin-2-ylmethyl)octahydrocyclopenta[c]pyrrol-5-yl)amino)pyridazin-3-yl)pyridin-2(1H)-one]
0.001 µM	3%	Cn1cc(-c2ccc(N[C@H]3C[C@@H]4CN(CCC(C)(C)C)C[C@@H]4C3)nn2)ccc1=O [A13, 5-(6-(((3aR,5s,6aS)-2-(3,3-dimethylbutyl)octahydrocyclopenta[c]pyrrol-5-yl)amino)pyridazin-3-yl)-1-methylpyridin-2(1H)-one]
0.0288 µM	3%	[2H]C([2H])(C1CCOCC1)N1C[C@H]2C[C@H](Nc3ccc(-c4ccc(=O)n(CC5CC5)c4)nn3)C[C@H]2C1 [A14, 1-(cyclopropylmethyl)-5-(6-(((3aR,5s,6aS)-2-((tetrahydro-2H-pyran-4-yl)methyl-d2)octahydrocyclopenta[c]pyrrol-5-yl)amino)pyridazin-3-yl)pyridin-2(1H)-one]
0.0196 µM	4%	O=c1ccc(-c2ccc(N[C@H]3C[C@@H]4CN(CC5CCOCC5)C[C@@H]4C3)nn2)cn1CC1CC1 [A15, 1-(cyclopropylmethyl)-5-(6-(((3aR,5s,6aS)-2-((tetrahydro-2H-pyran-4-yl)methyl)octahydrocyclopenta[c]pyrrol-5-yl)amino)pyridazin-3-yl)pyridin-2(1H)-one]
0.0019 µM	4%	Cc1cc(-c2ccc(N[C@H]3C[C@@H]4CN(CC5CCOCC5)C[C@@H]4C3)nn2)cn(C)c1=O [A16, 1,3-dimethyl-5-(6-(((3aR,5s,6aS)-2-((tetrahydro-2H-pyran-4-yl)methyl)octahydrocyclopenta[c]pyrrol-5-yl)amino)pyridazin-3-yl)pyridin-2(1H)-one]
0.013 µM	3%	Cn1cc(-c2ccc(N[C@H]3C[C@@H]4CN(CC5CCOCC5)C[C@@H]4C3)nn2)cc(F)c1=O [A17, 3-fluoro-1-methyl-5-(6-(((3aR,5s,6aS)-2-((tetrahydro-2H-pyran-4-yl)methyl)octahydrocyclopenta[c]pyrrol-5-yl)amino)pyridazin-3-yl)pyridin-2(1H)-one]
